Measurements as given in paper PMC11607671, “Antiviral activity of cathelicidins against porcine epidemic diarrhea virus (PEDV): Mechanisms, and efficacy” (Virus Research, 2024).

What was measured:
[1] = test system: PEDV; experiment: Transmission electron microscopy of peptide-treated virus; set-up: species or system Porcine epidemic diarrhea virus; details: PEDV treated with 10 µM peptide, negative stain, Fig. 9; for effect on virus morphology / membrane (TEM): one minute at 37 °C
Procedure: PEDV was treated with CATH-B1, LL-37, PMAP-23, and PMAP-36 for one minute at 37 °C. Subsequently, 10 µL of the sample was placed onto a freshly carbon-coated copper grid. The grids were washed 3 times with PBS and then fixed with 1% glutaraldehyde (Sigma-Aldrich, St. Louis, MO, USA) in PBS for 10 min. Following this fixation, the grids were rinsed 2 times with PBS and 4 times with MilliQ water. They were stained for 5 min in Uranyl Acetate (pH 7) then briefly washed with methylcellulose/uranyl acetate (pH 4) and incubated for 5 min on ice. Finally, the grids were looped out of the solution and air-dried. The samples were subsequently examined in a JEM1010 (JEOL) equipped with a Veleta 2k × 2k CCD camera (EMSIS, Munster, Germany).
Fig. 9 The effect of AMPs on the morphology of the virus. PEDV (MOI=0.3), which was pre-incubated with peptides. TEM images were taken of PEDV alone (A–D), PEDV treated with 10 µM LL-37 (E-H), PEDV treated with 10 µM CATH-B1 (I-L), PEDV treated with 10 µM PMAP-23 (M, N), and PEDV treated with 10 µM PMAP-36 (O, P). […] Micrographs were captured with a pixel size of 0,5 nm and analyzed visually using ImageJ. The micrographs are representative of observations from three independent experiments. Scale bars represent 100 nm.

[2] = test system: PEDV-GFP; experiment: Co-incubation antiviral assay of the extended AMP panel and of FL LL-37; type: cell-based, Porcine epidemic diarrhea virus; details: FC; for prevention of PEDV-GFP entry into Vero cells, extended AMP panel, in words: co-incubation with PEDV-GFP, 1 and 5 µM, 3 h, two independent experiments in duplicate, Fig. 5
Procedure: (§1) In order to determine the effect of AMPs on the infectivity of PEDV, Vero cells (5 × 10^5 per well) were seeded in 12-well plates and cultured overnight at 37 °C, 5% CO2. In a co-incubation of virus and AMPs experiments (Fig. 2A), the mixture of AMPs (0–10 µM) and PEDV-GFP (MOI= 0.3) in a 1 mL volume of DMEM (P/S + 10% FCS) was added to the cells and incubated at 37 °C. After 2 h, the supernatant was replaced with fresh DMEM (P/S + 10% FCS) and incubated for 24 h. Subsequently, the cells were washed 2 times with flow cytometry buffer (500 mL PBS+ 10 mL FCS+ 250 µL of 10% NaN3) and were imaged with an EVOS M5000 Imaging System for semi-quantitative determination of infectivity. Eventually, cells were carefully detached by 2.5% trypsin, stained with ViaKrome 808 fixable viability dye (1:1000), and incubated for 30 min at 4 °C. Following washing, the cells were fixed using 50 µL of 4% PFA for 10 min, and a minimum of 1 × 10^5 cells were acquired using the CytoFLEX LX Flow Cytometer (FC)(Beckman Coulter, USA). Data was analyzed using FlowJo software v.10.6 (Flowjo LCC, Ashland, OR, USA).
This extended panel of AMPs encompassed chicken-derived peptides (D-CATH-2, l-CATH-2), mouse-derived peptide (CRAMP), horse-derived peptides (eCATH-1, eCATH-3), parrot-derived peptides (ER2, ER3, AG3), and synthetic peptides (CR165, CR174), all of which were readily accessible within our laboratory. As previously described, these AMPs were co-incubated with PEDV.
Fig. 5 Antiviral effects of a diverse group of AMPs on PEDV infection. Vero cells were incubated for 3 h with a combination of PEDV-GFP and AMPs, as described previously. FC was utilized to assess the inhibitory impact of AMPs.
Figure S4. The antiviral activity of FL LL-37 (fluorogenic LL-37 ) and unlabeled LL-37. Peptides were co-incubated at 1 and 5 µM with PEDV and added to Vero cells for 3 h, followed by FC analysis to examine the infectivity.

[3] = test system: PEDV-GFP; experiment: Co-incubation antiviral assay, PEDV-GFP MOI=0.3, Vero cells (fluorescence microscopy and flow cytometry); type: cell-based, Porcine epidemic diarrhea virus
Procedure: as §1
Fig. 2 Effect of AMPs on the infectivity of PEDV (MOI=0.3). A) Experimental set-up of the ‘co-incubation assay’; Vero cells were subjected to 2 h exposure to a combination of AMPs and PEDV-GFP. Afterward, the supernatant was replaced, and the cells were incubated for an additional 24 h B) Fluorescent microscopy (20 × magnification) was performed to visualize the fluorescence signal of GFP in the presence of 1, 5, and 10 µM AMPs. The cell-only sample consists exclusively of cells while the no-peptide sample contains only PEDV-GFP, with no peptides present.
Fig. 3 Antiviral activity of AMPs as determined by flow cytometry (FC). A) The percentage of GFP-positive cells following a 2 h incubation with a combination of PEDV and AMPs. […] The values reported here depict the average ± SD derived from three independent experiments performed in duplicate. * p < 0.05; ** p < 0.01.

[4] = test system: PEDV; experiment: Peptide-virus interaction assay with Capto Core 700 beads; type: cell-based, Porcine epidemic diarrhea virus; details: Fig. 8
Procedure: In order to determine if CATH-B1 and LL-37 physically interact with PEDV, Capto Core 700 beads (GE Healthcare Life Sciences, Chicago, IL, USA) were used to selectively eliminate unbound AMPs. PEDV were pre-incubated with or without CATH-B1/LL-37 in Opti-MEM medium, and Capto Core 700 beads were added, followed by a 1 h incubation at 4 °C while slowly rotating. After centrifugation, supernatants were collected and applied to the cells. To make sure the AMP was removed effectively, we tested samples with peptides but no virus using the same process. The collected supernatants were used to inoculate cells, and the number of infected cells was determined using the described method.
Fig. 8 Interactions between CATH-B1 and LL-37 with PEDV. CATH-B1/LL-37 were pre-incubated with the virus, and subsequently, the peptide and virus were separated using Capto Core beads. The supernatant containing the separated virus was then employed to infect Vero cells. […] The data is presented as the mean ± SEM of three independent experiments in duplicate, each with triplicate samples. **** p < 0.0001.

[5] = test system: PEDV-GFP; experiment: Pre-incubation (pre-treatment) antiviral assay; type: cell-based, Porcine epidemic diarrhea virus; details: Vero cells treated 3 h with AMPs (0-10 µM), washed, then infected with PEDV-GFP MOI 0.3 for 2 h; FC; Fig. 6B, C
Procedure: The effect of AMPs on viral infectivity was also determined when they were added to Vero-cells before (pre-treatment) or after (post-treatment) infection. In the pre-treatment assay (Fig. 6A), Vero cells were treated with different concentrations of CATH-B1 and LL-37 peptides (ranging from 0 to 10 µM) for various durations (1, 2, 3, 4, and 24 h) at 37 °C. Subsequently, the cells were washed 2 times with PBS and infected with PEDV-GFP at an MOI of 0.3 for 2 h
In post-incubation assays (Fig. 7A), cells were initially exposed to the virus for 2 h, washed 2times with PBS and subsequently treated with AMPs for 3 h Both for pre- and post-infection assays, after the respective incubation periods, the cells were assessed using fluorescence microscopy and quantified using FC as described above.
Fig. 6 Effects of AMPs in pre-incubation assay. A) Experimental set-up of pre-incubation experiment. B) FC was employed to quantify the percentage of GFP-positive cells during pre-incubation. […] The reported values represent the mean ± SD derived from three independent experiments performed in triplicate. * p < 0.05; ** p < 0.01.

[6] = test system: PEDV; experiment: Co-incubation antiviral assay, PEDV MOI=1, Vero cells; type: cell-based, Porcine epidemic diarrhea virus; details: PEDV MOI=1, co-incubation, Vero cells, FC; Fig. 4B
Procedure: as §1
Fig. 4 The inhibitory effect of AMPs on PEDV at MOI=1. A) Fluorescence microscopy image was captured at 20 × magnification to visualize the GFP fluorescence signal in Vero cells following co-incubation of AMPs and PEDV at MOI=1. B) The percentage of GFP-positive cells was determined by FC after 3 h co-incubation of PEDV and AMPs. C) The fluorescence intensity of GFP across three different concentrations of LL-37 was illustrated through the FC histogram. […] The reported values in 4A represent the mean ± SD of three independent experiments performed in duplicate **** p < 0.0001.

[7] = test system: Vero cells
Procedure: To investigate the cellular localization of LL-37, Fluorogenic (FL) LL-37 was incubated with Vero cells for 3 h The cells were then washed with PBS and further incubated for 24 h at 37 °C. FC analysis was conducted to evaluate the amount of labeled LL-37 adhered or internalized within the cell, as described earlier (using unlabeled LL-37 as control). Additionally, to assess LL-37 uptake in Vero cells, the cells were incubated with FL LL-37 at concentrations of 1 and 5 µM for 30 min, 60 min, and 180 min, followed by PBS washes. After incubation, the cells were fixed with 4% PFA for 30 min at RT. After two PBS washes, DAPI (Thermo Fisher Scientific, Waltham, MA, USA) diluted in PBS (1:1000) was added for 5 min to stain the nuclei. The live cells were then imaged using a Leica TCS SP2 confocal microscope with a 63 × objective. To examine the uptake mechanism, Vero cells were first incubated at 4 °C for 30 min to inhibit energy-dependent pathways before adding FL LL-37. Subsequently, the cells were incubated with the peptide at 4 °C for 30, 60, and 180 min. FC analysis was performed to quantify the amount of FL LL-37 adhered to or internalized by the cells.
A) Following a 3 h incubation with Vero cells and subsequent washing, the cellular entry of FL LL-37 and unlabeled LL-37 was examined using FC. Two concentrations of LL-37 were employed for this investigation. B) After treating the cells with 1 and 5 µM FL LL-37 for 30 min, 1 h, and 3 h, the cells were washed, and DAPI staining was applied before imaging using confocal microscopy. […] The image was acquired at a magnification of 63x. The sample designated as 'cells only' comprises only cells, with an absence of peptides and viruses. In contrast, the 'no peptide' sample is characterized by the presence of only the virus.
Cellular uptake of fluorescein-labeled LL-37 (1 μM and 5 μM) in Vero cells was assessed after incubation for A) 30 min, B) 60 min, and C) 180 min, using a temperature-controlled assay at both 37 °C and 4 °C. Untreated cells (cells only) were used as the control.

GRFRRLRKKTRKRLKKIGKVLKWIPPIVGSIPLGCG [PMAP-36, porcine cathelicidin, 36 residues]
effect on virus morphology / membrane (TEM) [1]: structure remained unchanged

ISRLAGLLRKGGEKIGEKLKKIGQKIKNFFQKLVPQPE [CRAMP, mouse-derived peptide, 38 residues]
prevention of PEDV-GFP entry into Vero cells, extended AMP panel, in words [2]: failed to neutralize PEDV

PIRNWWIRIWEWLNGIRKRLRQRSPFYVRG HLNVTSTPQP (PIRNWWIRIWEWLNGIRKRLRQRSPFYVRGHLNVTSTPQP) [CATH-B1, chicken cathelicidin, 40 residues]
virus aggregation (TEM) [1]: extensive virus aggregation | effect on virus morphology / membrane (TEM) [1]: significant membrane damage | percentage of GFP-positive cells (FC), co-incubation ([3]; 10 µM peptide, PEDV-GFP MOI=0.3, 2 h co-incubation then 24 h, no-peptide control approximately 35%, three independent experiments in duplicate, Fig. 3A): 1–2% | infected cells by fluorescent microscopy, co-incubation ([3]; PEDV-GFP MOI=0.3, 5 and 10 µM peptide, 2 h co-incubation then 24 h, compared to control without peptide, Fig. 2B): reduced numbers of infected cells | virus infectivity, peptide pre-incubated with beads before PEDV introduction ([4]; Capto Core 700 beads, Vero cells): minimal effects on virus infectivity | virus infectivity, peptide incubated with PEDV without beads ([4]; no Capto Core 700 beads, Vero cells): a decrease in virus infectivity | antiviral activity when peptide is combined with virus and beads ([4]; peptide + PEDV, then Capto Core 700 beads 1 h at 4 °C, supernatant applied to Vero cells): remained unchanged | antiviral activity in pre-incubation assay, in words [5]: strong activity only at 10 μM | antiviral effect at MOI=1, in words [6]: diminished as the MOI increased

RIIDLLWRVRRPQKPKFVTVWVR [PMAP-23, porcine cathelicidin, 23 residues]
effect on virus morphology / membrane (TEM) [1]: structure remained unchanged

RRWVQRWIRRWRKVAAARRWVQRWIRRWRPKV [CR-174, non-naturally occurring synthetic (designed) AMP]
prevention of PEDV-GFP entry into Vero cells, extended AMP panel, in words [2]: unsuccessful in significantly preventing PEDV-GFP entry

RRWVQRWIRWVQRWVR [CR-165, non-naturally occurring synthetic (designed) AMP]
prevention of PEDV-GFP entry into Vero cells, extended AMP panel, in words [2]: unsuccessful in significantly preventing PEDV-GFP entry

Tamra-(ahx)-LLGDFFRKSKEKIGKEFKRIVQRIKDFLRNLVPRTES [FL LL-37, Tamra-(ahx)-labelled LL-37]
cellular localization (confocal microscopy) ([7]; 1 and 5 µM, 1 and 3 h incubation, Vero cells, fixed, DAPI, Fig. 10B): predominant intracellular localization | uptake or attachment to Vero cells (FC) ([7]; 3 h incubation with Vero cells, washing, FC fluorescence, two concentrations, unlabeled LL-37 as negative control, Fig. 10A): substantial concentration-dependent uptake or attachment | uptake at 4 °C (FC) ([7]; Vero cells at 4 °C versus 37 °C, 1 and 5 µM, 30, 60, 180 min, Fig. S5): significant reduction in the uptake | effect of fluorogenic labelling on antiviral activity ([2]; 1 and 5 µM co-incubated with PEDV, Vero cells 3 h, compared with unlabeled LL-37, Fig. S4): no effect on the antiviral activity
